Experimental data from article PMC6085350, “Small molecule inhibitors of RAS-effector protein interactions derived using an intracellular antibody fragment” (Nature Communications, 2018).
Converted amounts (≈) assume the structure as drawn. “Also recorded” adds a separate entry of the source.

Key:
[1] = test system: KRAS-GDP; assay: waterLOGSY NMR binding to GDP form
Procedure: (§1) The waterLOGSY NMR method[35] was used to measure RAS ligand interaction. WaterLOGSY experiments were conducted at a ^1H frequency of 600 MHz using a Bruker Avance spectrometer equipped with a BBI probe. All experiments were conducted at 298 K, 3 mm diameter NMR tubes with a sample final volume of 200 µl was used in all experiments. Solutions were buffered using an H2O 10 mM PBS, 5 mM MgCl2 buffer corrected to pH 7.4. The sample preparation is exemplified as follows, the compound (10 µl of a […] solution in DMSO-d6) was added to an eppendorf before sequential addition of the H2O PBS buffer (163.6 µl), D2O (20 µl), and protein (6.4 µl, 311.8 µM). The resulting solution was spun to ensure full mixing and transferred to a 3 mm NMR tube before running the experiment. For a competition experiment using Y6-scFv or VH, the preparation was carried out in a similar manner; the compound (10 µl of a 10 mM solution in DMSO-d6) was added to an eppendorf before sequential addition of the H2O PBS buffer (146.4 µl), D2O (20 µl), protein (6.4 µl, 311.8 µM) and Y6-ScFv (17.2 µl, 116.6 µM) with a ratio of 5.5:1:1. The resulting solution was spun and transferred to a 3 mm NMR tube before the run. […]
(§2) Supplementary Figure 3: Abd-2 WaterLOGSY NMR with and without anti RAS-scFV Abd-2 was analyzed by waterLOGSY. […]

[2] = biological target: T1, KRAS^G12V-GppNHp + scFv complex (Homo sapiens, UniProt P01116, G12V); assay: waterLOGSY NMR competition with anti-RAS scFv; type: binding
T1 construct: GST (N); made in house; host or cells: E. coli
Procedure: as §1, §2

[3] = Solubility; type: physicochemical
[4] = test system: ERK1/2 phosphorylation in H358 cells (KRAS^G12C); assay: Biomarker phosphorylation assay, pERK, H358; type: cell-based, human; conditions: H358, 2-20 μM, 3 h, EGF 10 min
Procedure: Fig. 5 Abd-7 results on RAS-dependent signalling pathways and cell viability. a, b DLD-1 (a) or H358 (b) cells were serum-starved for 24 h, incubated in mono-layer with Abd-7 in a range from 2, 5, 10 and 20 μM for 3 h and stimulated with EGF 10 min. Proteins were extracted and separated by SDS-PAGE and transferred to membranes for Western analysis with anti-pAKT, anti-pERK, anti-pan AKT and anti-pan ERK. Anti-cyclophilin B antibody was the loading control. Signal was developed using standard ECL. c–e Effects of compounds Abd-2, Abd-4, Abd-5, Abd-6, and Abd-7 on the viability of human cancer cells lines was assessed for a 2-D culture of DLD-1 (mutant KRAS^G13D) cells and HT1080 cells (mutant NRAS^Q61K). The cells were treated with a dose range from 0 μM to 20 μ and incubated for 72 h when cell viability was assessed using CellTitreGlo. […] Each experiment was repeated at least three times (a, b) and four times (c, d). Where error bars are presented, they correspond to mean values ± SD of biological repeats
A total of 450,000 DLD1 or 640,000 H358 cells were seeded per well of a six well plate. Approximately, 20 h later, the medium was removed, the cells washed twice with PBS and DMEM without FBS was added and left for 24 h. […] Cell lysates were sonicated with a Branson Sonifier and the protein concentrations determined by using the Pierce BCA protein assay kit (Thermo-Fisher). […]

[5] = biological target: PI3KC2; assay: Kinase panel (KinaseProfiler), first PI3KC2 line; type: biochemical, human; conditions: PI3KC2 (first of two lines), 10μM
Procedure: Experiments were performed by Eurofins Pharma Discovery Services. The KinaseProfiler™ assay protocol guide can be downloaded from their website: www.eurofins.com/discoveryservices. The guide contains information on the buffer conditions, substrate and reference inhibitor blank used for each kinase.
Supplementary Table 3. Assessment of potential interaction of Abd-7 with a human kinase
Kinase % kinase activity in
A panel of 14 Kinases (relevant to the RAS pathway) has been screened against Abd-7
(10μM) and the kinase activity was measured. […] of activity was observe for all
function of the selected and RAS relevant kinase proteins.

SMILES | binding to KRAS-GDP (waterLOGSY) [1] | binding to KRAS^G12V-GppNHp in the presence of anti-RAS scFv (waterLOGSY) [2] | solubility [3] | inhibition of ERK1/2 phosphorylation [4] | % kinase activity in the presence of Abd-7 [5]
O=C(NCC1COc2ccccc2O1)c1ccco1 (centres unmarked) [Abd-2] | poor binding | no longer binds; also recorded: no binding | 446 µM (≈ 116 µg/mL) | – | –
COc1nc(-c2cccc3c2OCCO3)ccc1Nc1ccc(CN(C)C)cc1 [Abd-7] | – | – | – | diminution of pERK levels | 102%
